Assays:
Assay type in all cases: in vivo
[1] = test system: Arabidopsis thaliana (ecotype Columbia); experiment: Test Example 7: Arabidopsis seedlings in medium, high-temperature stress, leaf area; details: 30 ppm in medium; high-temperature stress 45° C. 60 minutes; 8 days after; non-treated 3.4 mm^2
Method: In a Petri dish, a hydroponic sponge piece (1 cm×1 cm×0.2 cm) was immersed with a half concentration of Murashige-and-Skoog medium (MS culture medium: containing 2.5 mM MES, 1% sucrose and 0.1% Gamborg vitamin solution G1019 (Sigma-Aldrich)). On this sponge piece, 4 to 5 seeds of Arabidopsis thaliana (ecotype Columbia) were aseptically sown. After the low temperature treatment (at 4° C. for 2 to 4 days), the plants were grown for 6 days under the following conditions to obtain Arabidopsis seedlings: temperature, 23° C.; humidity, 45%; illuminance, 3,500 lux; day length, 16 hours. Each 0.5 ml of a half concentration of MS medium was dispensed into a 24-well plate (SUMILON MS-80240; manufactured by Sumitomo Bakelite), onto which […] of a 1,000-fold concentrated DMSO solution of compound (1b) was added to prepare medium containing compound (1b) at a concentration of 30 ppm. After thinning the Arabidopsis seedlings to 2 plants per sponge, the seedlings were transplanted in the compound (1b)-containing medium in each well of the 24-well plate, together with the sponge piece and then grown overnight. […] Each well was photographed with a digital camera and the green area in the photograph was measured using image analysis software Win ROOF (manufactured by MITANI CORPORATION), thereby quantifying the leaf areas of the plants.

[2] = test system: oilseed rape (Brasicca napus); experiment: Test Example 5: oilseed rape field application, percentage of green pods; details: flowable formulation, 250 g per hectare at day 253 (BBCH 65); assessed day 323 (BBCH 85); non-treated 12.75%
From the text: Seeds of oilseed rape (Brasicca napus) were sown and grown. At day 253 after the sowing, at growth stage 65, according to the Biologische Bundesanstalt, Bundessortenamt and CHemical industry (BBCH) scale, the flowable formulation prepared as described in Formulation Example 2 containing compound (1b) was applied in an amount of 250 g per hectare. A plot for the treatment measured 6 m×10 m. This plot was the present compound-treated group. A plot treated with the formulation without compound (1b) was used as the non-treated group, in which plants were cultivated in the same manner as in the present compound-treated group.
At day 323 after the sowing, when almost all the plants entered growth stage 85, according to the BBCH scale, the percentage of pods remaining green among the pods of the plants was examined and determined in both the present compound-treated and non-treated groups.

[3] = test system: Basil (cultivar: Sweet Basil; Takii); experiment: Test Example 10: basil seedling spraying, low-temperature stress, fresh weight and damage score; details: for Fresh weight of above-ground part: low-temperature stress 3.0° C., non-treated 0.34 g; for Damage score: score 0 (completely killed) to 100 (survived without any damage), survived leaf area, non-treated 17
Method: Basil seeds (cultivar: Sweet Basil; Takii) were sown in the culture soil (AISAI) in plastic pots (55 mm in diameter×58 mm in height) and grown for 24 days under the following conditions to obtain a basil seedling per pot: temperature, 27° C.; humidity, 50 to 75%; illuminance, about 6,000 lux; day length, 16 hours.
Compound (1b). was dissolved in dimethylsulfoxide (DMSO) to obtain a DMSO solution of compound (lb) at a 1,000-fold concentration relative to the test concentration. This DMSO solution of compound (1b) was 1,000-fold diluted with water. Then Triton X-100 was added as a surfactant to a final concentration of 0.1%. The spray solution thus prepared was applied in a sufficient amount (15 ml per 3 pots) by means of a handspray.
As a control, a spray solution without compound (ib) was prepared and then sprayed to the non-treated group. The plants were further grown for 1 day under the following conditions: temperature, 27° C.; humidity, 50 to 75%; illuminance, about 6,000 lux; day length, 16 hours.
Subsequently, the basil seedlings were placed in a phytotron under the following conditions, to expose the plants to low-temperature stress. • Conditions: “temperature, 3.0° C.; illuminance, 800 lux; • humidity, 50 to 80%”
The plants were further grown for another 2 days under the following conditions: temperature, 27° C.; humidity, 50 to 75%, illuminance, about 6,000 lux; day length, 16 hours.
The percentage of the leaf area of the portions of true leaves of the basil seedlings which survived without being damaged was scored as follows: completely killed with 0% of the survived leaf area to the total leaf area: 0; survived without any damage with 100% of the survived leaf area to the total leaf: 100; and scored from 0 to 100 by increment of 1 by visual observation. The scores of three plants were averaged to determine the damage score. The aerial part of the basil seedlings was removed to measure the fresh weight of the above-ground part. The average weight of three individuals was recorded as the fresh weight of the above-ground part.

[4] = test system: Corn (cultivar: DeKalb 61-69); experiment: Test Example 4: field corn foliage spraying, percentage of green leaves; details: assessed 143 days after sowing (R6), non-treated 23.8%
From the text: Corn seeds (cultivar: DeKalb 61-69) were sown at 33,684 seeds per acre and grown. Each plot in the field for treatment measured 10 feet in width and 15.5 feet in length. The treatments were arranged using the Randomized Complete Block Design method with eight replications for each treatment. Groups treated with the formulation without compound (1b) were used as the non-treated groups, in which corn was cultivated in the same manner as in the present compound-treated groups. The flowable formulation prepared as described in Formulation Example 2 was applied by foliage spraying 111 days after the sowing, at developmental stage R3 of maize. The percentage of green leaves among the leaves upper to the lowest ear of corn was determined for each formulation-treated group 143 days after the sowing, at developmental stage R6 of maize. As a result, the percentages were 41.3% and 45.6% on average, respectively, in the groups treated with 100 g and 300 g per hectare of compound (1b), while the percentage was 23.8% on average in the non-treated groups.

## CNC(=O)C(OC)c1ccccc1COc1cc(C)ccc1C (racemic) [Compound (1b), N-methyl-2-[2-(2,5-dimethylphenoxy)methyl]phenyl-2-methoxyacetamide]
[1]
  Mean leaf area of plants: 12.6 mm^2
[2]
  percentage of green pods: 22.25%
[3]; spray 10 ppm
  Fresh weight of above-ground part: 0.62 g
  Damage score: 30
[3]; spray 30 ppm
  Fresh weight of above-ground part: 0.72 g
  Damage score: 38
[3]; spray 100 ppm
  Fresh weight of above-ground part: 0.92 g
  Damage score: 81
[3]; spray 250 ppm
  Fresh weight of above-ground part: 0.94 g
  Damage score: 68
[4]; foliage spraying 100 g per hectare at 111 days (R3)
  percentage of green leaves among the leaves upper to the lowest ear (average): 41.3%
[4]; foliage spraying 300 g per hectare at 111 days (R3)
  percentage of green leaves among the leaves upper to the lowest ear (average): 45.6%

From patent US20130324413A1, “METHOD FOR PROMOTING PLANT GROWTH” (SUMITOMO CHEMICAL COMPANY, LIMITED, priority 2011, published 2013)
